Patent US20220387411A1, “TARGETED AUTOPHAGY CONJUGATES AND METHODS” (Frontier Medicines Corporation, priority 2019, published 2022)

target: T1, Recombinant pure human SQSTM1 protein (Homo sapiens, UniProt Q13501); assay: Inhibition of IA-Rhodamine labeling of SQSTM1 (gel-based, densitometry); format: binding; settings: 50 μM of test compound (initial screen); 30 min at 37° C., then 100 nM IA-Rhodamine 1 hour; inhibition of target labeling by densitometry
T1 construct: purchased Origene
Procedure: Recombinant pure human SQSTM1 protein was purchased from Origene. SQSTM1 protein (0.21 μg) was diluted into 50 μL of PBS and 1 μL of either DMSO (vehicle) or covalently acting small molecule (test compound) to achieve the desired concentration. After 30 min. at 37° C., the samples were treated with 100 nM IA-Rhodamine (tetramethylrhodamine-5-iodoacetamide dihydroiodide; Setareh Biotech, 6222, prepared in anhydrous DMSO) for 1 hour at room temperature. Samples were then diluted with 20 μL of 4× reducing Laemmli SDS sample loading buffer (Alfa Aesar) and heated at 90° C. for 5 min. The samples were separated on precast 4-20% Criterion TGX gels (Bio-Rad Laboratories, Inc.). Fluorescent imaging was performed on a ChemiDoc MP instrument (Bio-Rad Laboratories, Inc.), and inhibition of target labeling was assessed by densitometry using ImageJ software. The initial screen was performed using 50 μM of test compound.

T1 sequence (Q13501 whole entry): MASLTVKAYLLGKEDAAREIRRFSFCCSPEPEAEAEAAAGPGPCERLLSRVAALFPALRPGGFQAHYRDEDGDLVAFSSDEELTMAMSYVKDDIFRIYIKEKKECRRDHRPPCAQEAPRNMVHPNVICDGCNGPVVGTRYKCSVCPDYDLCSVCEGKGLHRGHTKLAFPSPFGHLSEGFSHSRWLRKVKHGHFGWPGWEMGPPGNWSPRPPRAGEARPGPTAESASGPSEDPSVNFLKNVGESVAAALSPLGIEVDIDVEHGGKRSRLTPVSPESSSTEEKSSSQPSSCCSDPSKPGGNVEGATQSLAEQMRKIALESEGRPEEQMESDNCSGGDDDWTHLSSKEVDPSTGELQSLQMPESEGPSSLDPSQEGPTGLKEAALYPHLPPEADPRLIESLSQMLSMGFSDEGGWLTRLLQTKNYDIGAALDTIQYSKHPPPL

SMILES	inhibition at 50 µM [%]	% inhibition
C[C@H]1CNCCCN1C(=O)CCl [Compound 66, (S)-2-chloro-1-(2-methyl-1,4-diazepan-1-yl)ethanone]		not active
CC1CCCCN(C(=O)CCl)C1 (stereo not drawn) [Compound 31, 2-chloro-1-(3-methylazepan-1-yl)ethanone]	39	
CCOC(=O)c1cnc2n1CCN(C(=O)CCl)CC2 [Compound 54, Ethyl 7-(2-chloroacetyl)-6,7,8,9-tetrahydro-5H-imidazo[1,2-d][1,4]diazepine-3-carboxylate]	46	
O=C(CCl)N1CCOCC(F)(F)C1 [Compound 50, 2-chloro-1-(6,6-difluoro-1,4-oxazepan-4-yl)ethanone]	17	
CC1(CNC(=O)OCc2ccccc2)CCCCN(C(=O)CCl)C1 (stereo not drawn) [Compound 26, Benzyl ((1-(2-chloroacetyl)-3-methylazepan-3-yl)methyl)carbamate]	70	
COc1ccc(CN(C(=O)CCl)c2nccs2)c(OC)c1 [Compound 1, 2-chloro-N-(2,4-dimethoxybenzyl)-N-(thiazol-2-yl)acetamide]	79	
NC1CCCCN(C(=O)CCl)C1 (stereo not drawn) [Compound 68, 1-(3-aminoazepan-1-yl)-2-chloro-ethanone]	44	
O=C(CCl)N1Cc2ccnn2CC(O)C1 (stereo not drawn) [Compound 55, 2-chloro-1-(7-hydroxy-7,8-dihydro-4H-pyrazolo[1,5-a][1,4]diazepin-5(6H)-yl)ethanone]	35	
COC(=O)N1CCCN(C(=O)CCl)CC1 [Compound 17, Methyl 4-(2-chloroacetyl)-1,4-diazepane-1-carboxylate]	9	
O=C(CCl)N1CCNCC(O)C1 (stereo not drawn) [Compound 67, 2-chloro-1-(6-hydroxy-1,4-diazepan-1-yl)ethanone]	35	

Further lines, results first:

inhibition at 50 µM [%]	% inhibition	SMILES
83		O=C(CCl)N1CCCCC(F)(F)C1 [Compound 19, 2-chloro-1-(3,3-difluoroazepan-1-yl)ethanone]
82		CC(C)(C)OC(=O)N1CCCCC2(CCCCN(C(=O)CCl)C2)C1 (stereo not drawn) [Compound 58, Tert-butyl 9-(2-chloroacetyl)-2,9-diazaspiro[6.6]tridecane-2-carboxylate]
49		CC1CCCCCN1C(=O)CCl (stereo not drawn) [Compound 13, 2-chloro-1-(2-methylazepan-1-yl)ethan-1-one]
52		CCOC(=O)c1ncn2c1CN(C(=O)CCl)CCC2 [Compound 53, Ethyl 8-(2-chloroacetyl)-6,7,8,9-tetrahydro-5H-imidazo[1,5-a][1,4]diazepine-1-carboxylate]
32		O=C(CCl)N1CCCC(O)(C(F)(F)F)CC1 (stereo not drawn) [Compound 33, 2-chloro-1-(4-hydroxy-4-(trifluoromethyl)azepan-1-yl)ethanone]
25		O=C(CCl)N1CCC(F)C(F)(F)CC1 (stereo not drawn) [Compound 43, 2-chloro-1-(4,4,5-trifluoroazepan-1-yl)ethanone]
34		CC1(F)CCCN(C(=O)CCl)CC1 (stereo not drawn) [Compound 36, 2-chloro-1-(4-fluoro-4-methylazepan-1-yl)ethanone]
31		O=C(NC1CCCN(C(=O)CCl)CC1)OCc1ccccc1 (stereo not drawn) [Compound 46, Benzyl (1-(2-chloroacetyl)azepan-4-yl)carbamate]
40		O=C(NCC1(F)CCCN(C(=O)CCl)CC1)OCc1ccccc1 (stereo not drawn) [Compound 38, Benzyl ((1-(2-chloroacetyl)-4-fluoroazepan-4-yl)methyl)carbamate]
38		CC1(F)CCCCN(C(=O)CCl)C1 (stereo not drawn) [Compound 29, 2-chloro-1-(3-fluoro-3-methylazepan-1-yl)ethanone]
40		O=C(CCl)N1CCCS(=O)(=O)CC1 [Compound 52, 2-chloro-1-(1,1-dioxido-1,4-thiazepan-4-yl)ethanone]
50		O=C(CCl)N1CCc2nccn2CC1 [Compound 56, 2-chloro-1-(8,9-dihydro-5H-imidazo[1,2-d][1,4]diazepin-7(6H)-yl)ethanone]

target: Protein SQSTM1 (p62) (Homo sapiens, UniProt Q13501); assay: Dose response of Compound 1 and Compound 19 against SQSTM1 (TAMRA fluorescence); format: binding; settings: pre-incubated at 2, 0.5, 0.125 and 0.03 μM, then reactive probe TAMRA; FIG. 1
Procedure: Protein SQSTM1 (p62) was pre-incubated with either Compound 1 or Compound 19 at concentrations of 2, 0.5, 0.125, and 0.03 μM, followed by addition of the reactive probe 5-carboxytetramethylrhodamine (TAMRA). Measurements were made using TAMRA fluorescence. Silver staining of the protein was used as a protein loading control. Decreasing fluorescence of TAMRA indicates binding of the test compound.

Protein SQSTM1 (p62), sequence (Q13501 whole entry): as above

binding to SQSTM1 (decreasing TAMRA fluorescence)	SMILES
covalently bind to SQSTM1	O=C(CCl)N1CCCCC(F)(F)C1 [Compound 19, 2-chloro-1-(3,3-difluoroazepan-1-yl)ethanone]
covalently bind to SQSTM1	COc1ccc(CN(C(=O)CCl)c2nccs2)c(OC)c1 [Compound 1, 2-chloro-N-(2,4-dimethoxybenzyl)-N-(thiazol-2-yl)acetamide]
